What all share (type): cell-based, human
Experiment [1] deals with MDA-MB-231 cells. The experiment in a line: Three-dimensional morphogenesis assay in Matrigel. Conditions: 5 μM peptide, Matrigel 3D culture. As to the method: FIG. 3: A. Morphogenesis in 3D cultures in Matrigel. MDA-MB-231 and MMTV-Myc cells expressing SID or the double mutant were cultured in 3D-Matrigel for 14 days. […] B. Reversion of the invasive phenotype of the MDA-MB-231 cells in Matrigel 3D cultures. Upper panel indicates change in numbers of invasive versus non invasive colonies (as indicated in crosshatched and non-crosshatched bars, respectively) in the presence of different concentrations (as indicated) of cell penetrating SID or SID^SCR (scrambled control) peptide. The colonies were counted after 10 days of treatment with a medium containing fresh peptide changed every 24 hours. […] The reduction in invasive phenotype was quantified by counting 5 low magnification fields per well done in triplicates (upper panel). The p value was calculated using the unpaired Student t test.
3D cultures of MDA-MB-231 and MMTV-Myc cells stably transfected with pEGFP-SID, pEGFP-SID2Mut or the parent vector pEGFP-N3 were prepared as described by Debnath et al. (Debnath et al2003). Briefly, […] of growth factor depleted Matrigel (BD Biosciences) was applied on 8-well multichamber slides (BD Biosciences) and incubated at 37° C. for 30 minutes. Once the Matrigel solidified 5×10^3 cells were seeded on top of the gels in assay medium containing 2% Matrigel and 20 ng/ml […]. Growth medium was changed daily for 14 days. Once colony formation was evident, the SID or the scramble control peptide was added to the MDA-MB-231 parental cells in the medium starting at day 3. The morphology of the colonies was determined by confocal microscopy. Induction of apoptosis was determined by staining colonies with activated caspase-3 antibody (BD Transduction Labs) and cell polarization by staining with anti-GM130 antibody (BD Transduction Labs). Cell nuclei were visualized by DAPI (Sigma) staining. […]

For experiment [2], the system named is MDA-MB-231. The experiment in a line: Phenotypic (morphology) changes in culture. Conditions: cells in culture. The source says: FIG. 1: Expression of a decoy peptide corresponding to MAD Sin3 interaction domain (SID) induces markers of differentiation and contact inhibition in MDA-MB-231 breast cancer cells. A. Schematic of the SID peptides and expression constructs used in this study. Shown in the upper panel are the design and sequence of the Tat-SID peptide and Tat-SID^SCR scrambled control. The Tat-SID peptide corresponds to amino acids 5-24 of MAD. This sequence binds Sin3 PAH2 with high affinity and has been previously used to study SID-PAH2 interactions in vitro. Peptides contain a leader sequence (YGRKKRRQGGG, SEQ ID No. 5) corresponding to the human immunodeficiency virus type 1 Tat arginine-rich RNA-binding motif (ARM), which has been mutated (RRR>GGG) to improve nuclear entry. B. Morphological changes induced by SID in MDA-MB-231 and MMTV-Myc. […] D. Confocal IF analyses showing the re-expression of membrane-associated E-cadherin induced by the expression of SID in MDA-MB-231 cells (top row) and MMTV-Myc cells (bottom row) E. Re-expression of nuclear RARβ in MDA-MB-231 cells detected by immunofluorescence microscopy. […]

The subject of experiment [3] is ERα and RARβ. The experiment in a line: Re-expression of silenced genes in MDA-MB-231 cells. The text has this:
This finding coincides with the increased expression of E-cadherin and CRBP1, known RAR target genes and the induction of p27, highly sensitive to RAR activation. […] Thus, blocking specific sites of a component of a transcriptional repressor limited to few transcription factors can be used to induce a differentiation phenotype and anti-tumor effect in breast cancer and that these events may, impart new and/or restore therapeutic targets in breast cancer.

Take “YGRKKRRQGGGVRMNIQMLLEAADYLERRER [SID peptide]”: in experiment [1], the “number and size of the colonies” value was “reduced”. Further, the “decrease in number of colonies with invasive phenotype” value in experiment [1] (colonies counted after 10 days of treatment) is on record as about 80%. In addition, the “phenotypic change of cell morphology” value in experiment [2] is “cobblestone monolayers and well defined cell-cell contact accompanied by cell growth contact inhibition”. In addition, in experiment [3], the “re-expression of ERα and RARβ” value was “induced the re-expression of ERα and RARβ”.

The values above are taken from US20110003753A1, “COMPOSITIONS AND METHODS FOR DISRUPTING THE FUNCTION OF THE TRANSCRIPTIONAL REPRESSOR COMPONENT Sin3A-PAH2 DOMAIN TO INDUCE DIFFERENTIATION AND GROWTH INHIBITION IN BREAST CANCER” (SAMUEL WAXMAN CANCER RESEARCH FOUNDATION, priority 2009, published 2011).
